# Patent US6660742B2, “Compositions and methods of the use thereof achiral analogues of CC-1065 and the duocarmycins” (priority 2000, dated 2003)
# Read-outs that look alike come from different tables or passages of the source.
# Assays:
# [1] = system: panel of 60 human cancer cell lines; assay: NCI in-vitro cytotoxicity screen, whole panel; type: cell-based
# [2] = system: ACHN; type: cell-based, human
# [3] = system: MDA-MB-435; assay: NCI screen, MDA-MB-435 (Breast Cancer); type: cell-based, human
# Description: (§1) The compounds of this invention were also tested against the panel of 60 human cancer cell lines at the National Cancer Institute, Bethesda, Md. […] The cytrotoxicity studies were conducted using a 48 hour exposure, and measuring the optical density of sulforhodamide B-derived color.
# [4] = system: A549/ATCC
# [5] = system: MDA-MB-231/ATCC; details: MDA-NB-231/ATCC, 48 hour exposure
# [6] = system: M14; assay: NCI screen, M14 (Melanoma); details: M14, 48 hour exposure
# Description: as §1
# [7] = system: MOLT-4; assay: NCI screen, MOLT-4 (Leukemia)
# Description: as §1
# [8] = system: U251; assay: NCI screen, U251 (CNS Cancer); details: U251, 48 hour exposure
# Description: as §1
# [9] = system: UACC-62; assay: NCI screen, UACC-62 (Melanoma)
# Description: as §1
# [10] = system: SF-268; assay: NCI screen, SF-268 (CNS Cancer); details: SF-268, 48 hour exposure
# Description: (§2) The compounds of this invention were also tested against the panel of 60 human cancer cell lines at the National Cancer Institute, Bethesda, Md. (44). The cytrotoxicity studies were conducted using a 48 hour exposure, and measuring the optical density of sulforhodamide B-derived color.
# [11] = system: SF-295; assay: NCI screen, SF-295 (CNS Cancer)
# Description: as §1
# [12] = system: LOX IMVI; assay: NCI screen, LOX IMVI (Melanoma); details: LOX IMVI, 48 hour exposure
# Description: as §2
# [13] = system: SK-MEL-2; assay: NCI screen, SK-MEL-2 (Melanoma)
# Description: as §1
# [14] = system: UACC-257; assay: NCI screen, UACC-257 (Melanoma)
# Description: as §1
# [15] = system: 786-0; assay: NCI screen, 786-0 (Renal Cancer)
# Description: as §1
# [16] = system: MDA-N; assay: NCI screen, MDA-N (Breast Cancer); details: MDA-N, 48 hour exposure
# Description: as §1
# [17] = system: RXF 393; assay: NCI screen, RXF 393 (Renal Cancer)
# Description: as §1
# [18] = system: BT-549; assay: NCI screen, BT-549 (Breast Cancer); details: BT-549, 48 hour exposure
# Description: as §2
# [19] = system: PC-3; assay: NCI screen, PC-3 (Prostrate Cancer)
# Description: as §1
# [20] = system: OVCAR-8; assay: NCI screen, OVCAR-8 (Ovarian Cancer); details: OVCAR-8, 48 hour exposure
# Description: as §2
# [21] = system: SK-OV-3; assay: NCI screen, SK-OV-3 (Ovarian Cancer)
# Description: as §1
# [22] = Log10 Concentration −4.3, 48 hour exposure
# [23] = Log10 Concentration −5.3, 48 hour exposure
# [24] = Log10 Concentration −6.3, 48 hour exposure
# [25] = Log10 Concentration −7.3, 48 hour exposure
# [26] = Log10 Concentration −8.3, 48 hour exposure
smiles,measurement,setting,value
"COC(=O)c1[nH]c2c(O)cc(NC(=O)c3cc4cc(OC)c(OC)c(OC)c4[nH]3)c(CCCl)c2c1C(=O)OC [Compound 22, Dimethyl 4-(2-chloroethyl)-7-hydroxy-5-(5,6,7-trimethoxyindole-2-carboxamido)indole-2,3-dicarboxylate]",range of activity,[1]; 48 hour exposure,micromolar range
same,activity against leukemia cells,[1]; leukemia cells,none of these compounds showed much activity
same,activity against melanoma cells,[1]; melanoma cells,active
same,activity against solid tumors cells,[1]; solid tumors cells,strong activity
same,TGI,[2],5.95E−06 Molar
same,TGI,[3]; 48 hour exposure,3.95E−07 Molar
same,Percent Growth,[3]; [22],−32%
same,Percent Growth,[3]; [23],−28%
same,Percent Growth,[3]; [24],−11%
same,Percent Growth,[3]; [25],97%
same,Percent Growth,[3]; [26],96%
same,Percent Growth,[4]; [22],5%
same,Percent Growth,[4]; [23],12%
same,Percent Growth,[4]; [24],−6%
same,Percent Growth,[4]; [25],93%
same,Percent Growth,[4]; [26],108%
same,TGI,[5],> 5.00E−05 Molar
same,Percent Growth,[5]; Log10 Concentration −4.3,10%
same,Percent Growth,[5]; Log10 Concentration −5.3,12%
same,Percent Growth,[5]; Log10 Concentration −6.3,16%
same,Percent Growth,[5]; Log10 Concentration −7.3,89%
same,Percent Growth,[5]; Log10 Concentration −8.3,99%
same,TGI,[6],1.68E−07 Molar
same,Percent Growth,[6]; Log10 Concentration −4.3,−92%
same,Percent Growth,[6]; Log10 Concentration −5.3,−90%
same,Percent Growth,[6]; Log10 Concentration −6.3,−69%
same,Percent Growth,[6]; Log10 Concentration −7.3,77%
same,Percent Growth,[6]; Log10 Concentration −8.3,105%
same,TGI,[7]; 48 hour exposure,>5.00E−05 Molar
same,Percent Growth,[7]; [22],22%
same,Percent Growth,[7]; [23],20%
same,Percent Growth,[7]; [24],21%
same,Percent Growth,[7]; [25],28%
same,Percent Growth,[7]; [26],61%
same,TGI,[8],8.44E−06 Molar
same,Percent Growth,[8]; Log10 Concentration −4.3,−40%
same,Percent Growth,[8]; Log10 Concentration −5.3,12%
same,Percent Growth,[8]; Log10 Concentration −6.3,11%
same,Percent Growth,[8]; Log10 Concentration −7.3,74%
same,Percent Growth,[8]; Log10 Concentration −8.3,89%
same,TGI,[9]; 48 hour exposure,1.85E−07 Molar
same,Percent Growth,[9]; [22],−89%
same,Percent Growth,[9]; [23],−78%
same,Percent Growth,[9]; [24],−58%
same,Percent Growth,[9]; [25],76%
same,Percent Growth,[9]; [26],90%
same,TGI,[10],8.40E−08 Molar
same,Percent Growth,[10]; Log10 Concentration −4.3,−58%
same,Percent Growth,[10]; Log10 Concentration −5.3,−63%
same,Percent Growth,[10]; Log10 Concentration −6.3,−42%
same,Percent Growth,[10]; Log10 Concentration −7.3,12%
same,Percent Growth,[10]; Log10 Concentration −8.3,80%
same,Percent Growth,[11],1%
same,TGI,"[11]; SF-295, 48 hour exposure",>5.00E−05 Molar
same,Percent Growth,"[11]; SF-295, Log10 Concentration −5.3, 48 hour exposure",11%
same,Percent Growth,"[11]; SF-295, Log10 Concentration −6.3, 48 hour exposure",14%
same,Percent Growth,"[11]; SF-295, Log10 Concentration −7.3, 48 hour exposure",74%
same,Percent Growth,"[11]; SF-295, Log10 Concentration −8.3, 48 hour exposure",106%
same,TGI,[12],3.84E−07 Molar
same,Percent Growth,[12]; Log10 Concentration −4.3,−61%
same,Percent Growth,[12]; Log10 Concentration −5.3,−23%
same,Percent Growth,[12]; Log10 Concentration −6.3,−9%
same,Percent Growth,[12]; Log10 Concentration −7.3,66%
same,Percent Growth,[12]; Log10 Concentration −8.3,81%
same,TGI,[13]; 48 hour exposure,1.69E−07 Molar
same,Percent Growth,[13]; [22],−87%
same,Percent Growth,[13]; [23],−74%
same,Percent Growth,[13]; [24],−78%
same,Percent Growth,[13]; [25],87%
same,Percent Growth,[13]; [26],89%
same,TGI,[14]; 48 hour exposure,2.25E−05 Molar
same,Percent Growth,[14]; [22],−10%
same,Percent Growth,[14]; [23],19%
same,Percent Growth,[14]; [24],6%
same,Percent Growth,[14]; [25],99%
same,Percent Growth,[14]; [26],101%
same,TGI,[15]; 48 hour exposure,4.92E−07 Molar
same,Percent Growth,[15]; [22],−50%
same,Percent Growth,[15]; [23],−26%
same,Percent Growth,[15]; [24],−1%
same,Percent Growth,[15]; [25],82%
same,Percent Growth,[15]; [26],94%
same,Percent Growth,[16]; Log10 Concentration −4.3,8%
same,Percent Growth,[16]; Log10 Concentration −5.3,−3%
same,Percent Growth,[16]; Log10 Concentration −6.3,5%
same,Percent Growth,[16]; Log10 Concentration −7.3,91%
same,Percent Growth,[16]; Log10 Concentration −8.3,90%
same,TGI,[17]; 48 hour exposure,1.31E−06 Molar
same,Percent Growth,[17]; [22],−65%
same,Percent Growth,[17]; [23],−25%
same,Percent Growth,[17]; [24],18%
same,Percent Growth,[17]; [25],57%
same,Percent Growth,[17]; [26],94%
same,TGI,[18],1.23E−05 Molar
same,Percent Growth,[18]; Log10 Concentration −4.3,−39%
same,Percent Growth,[18]; Log10 Concentration −5.3,25%
same,Percent Growth,[18]; Log10 Concentration −6.3,42%
same,Percent Growth,[18]; Log10 Concentration −7.3,85%
same,Percent Growth,[18]; Log10 Concentration −8.3,91%
same,TGI,[19]; 48 hour exposure,6.40E−07 Molar
same,Percent Growth,[19]; [22],−88%
same,Percent Growth,[19]; [23],−32%
same,Percent Growth,[19]; [24],4%
same,Percent Growth,[19]; [25],55%
same,Percent Growth,[19]; [26],81%
same,TGI,[20],2.33E−07 Molar
same,Percent Growth,[20]; Log10 Concentration −4.3,−64%
same,Percent Growth,[20]; Log10 Concentration −5.3,−65%
same,Percent Growth,[20]; Log10 Concentration −6.3,−32%
same,Percent Growth,[20]; Log10 Concentration −7.3,65%
same,Percent Growth,[20]; Log10 Concentration −8.3,86%
same,TGI,[21]; 48 hour exposure,8.81E−06 Molar
same,Percent Growth,[21]; [22],−54%
same,Percent Growth,[21]; [23],17%
same,Percent Growth,[21]; [24],35%
same,Percent Growth,[21]; [25],90%
same,Percent Growth,[21]; [26],103%
